Reference: PMC9516332 (Frontiers in Oncology, 2022)
Where two headings read alike, the source gives them in different places.

Legend:
Assay in all cases: Kinase panel profiling at 1 µmol/L (MSA or IMAP), percentage inhibition
Format in all cases: biochemical
[1] = biological target: T1, panel of 255 wild-type kinases (Homo sapiens, UniProt O14757); conditions: CHK1 kinase assay; 1 µmol/L single concentration; read-out: %-inhibition CHK1
T1 sequence (O14757 1-476): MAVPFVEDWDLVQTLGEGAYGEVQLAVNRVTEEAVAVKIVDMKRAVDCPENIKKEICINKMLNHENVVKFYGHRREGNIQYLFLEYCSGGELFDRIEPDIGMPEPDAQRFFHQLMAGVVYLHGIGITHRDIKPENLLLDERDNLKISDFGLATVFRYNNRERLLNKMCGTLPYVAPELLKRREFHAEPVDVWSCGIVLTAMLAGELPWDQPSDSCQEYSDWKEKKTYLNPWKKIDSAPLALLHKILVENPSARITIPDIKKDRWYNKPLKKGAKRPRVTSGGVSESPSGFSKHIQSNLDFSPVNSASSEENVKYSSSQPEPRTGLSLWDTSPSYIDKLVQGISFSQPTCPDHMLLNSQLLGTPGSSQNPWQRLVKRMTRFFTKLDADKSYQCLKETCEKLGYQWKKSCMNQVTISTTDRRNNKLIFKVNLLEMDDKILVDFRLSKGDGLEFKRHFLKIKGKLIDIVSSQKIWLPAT

[2] = biological target: panel of 255 wild-type kinases (Homo sapiens, UniProt Q9P289); conditions: MST4; 1 µmol/L single concentration; read-out: %-inhibition, MST4
[3] = biological target: panel of 255 wild-type kinases (Homo sapiens, UniProt P07949); conditions: kinase RET; 1 µmol/L single concentration; read-out: %-inhibition at 1 µmol/L, RET
[4] = biological target: panel of 255 wild-type kinases (Homo sapiens, UniProt P19784); conditions: kinase CK2α2/β; 1 µmol/L single concentration; read-out: %-inhibition at 1 µmol/L, CK2α2/β
[5] = biological target: panel of 255 wild-type kinases (Homo sapiens, UniProt P35968); conditions: read-out: %-inhibition at 1 µmol/L, KDR
[6] = biological target: panel of 255 wild-type kinases (Homo sapiens, UniProt P00533); conditions: kinase EGFR; 1 µmol/L single concentration; read-out: %-inhibition at 1 µmol/L, EGFR
[7] = biological target: panel of 255 wild-type kinases (Homo sapiens, UniProt P50613); conditions: CDK7/CycH/MAT1 kinase assay; 1 µmol/L single concentration; read-out: %-inhibition CDK7/CycH/MAT1
[8] = biological target: panel of 255 wild-type kinases (Homo sapiens, UniProt Q9P0L2); conditions: MARK1; 1 µmol/L single concentration; read-out: %-inhibition, MARK1
[9] = biological target: panel of 255 wild-type kinases (Homo sapiens, UniProt Q9H2G2); conditions: kinase SLK; 1 µmol/L single concentration; read-out: %-inhibition at 1 µmol/L, SLK
[10] = biological target: panel of 255 wild-type kinases (Homo sapiens, UniProt Q9UK32); conditions: kinase RSK4; 1 µmol/L single concentration; read-out: %-inhibition at 1 µmol/L, RSK4
[11] = biological target: T2, panel of 255 wild-type kinases (Homo sapiens, UniProt O94806); conditions: kinase PKD3; 1 µmol/L single concentration; read-out: %-inhibition at 1 µmol/L, PKD3
T2 sequence (O94806 1-890): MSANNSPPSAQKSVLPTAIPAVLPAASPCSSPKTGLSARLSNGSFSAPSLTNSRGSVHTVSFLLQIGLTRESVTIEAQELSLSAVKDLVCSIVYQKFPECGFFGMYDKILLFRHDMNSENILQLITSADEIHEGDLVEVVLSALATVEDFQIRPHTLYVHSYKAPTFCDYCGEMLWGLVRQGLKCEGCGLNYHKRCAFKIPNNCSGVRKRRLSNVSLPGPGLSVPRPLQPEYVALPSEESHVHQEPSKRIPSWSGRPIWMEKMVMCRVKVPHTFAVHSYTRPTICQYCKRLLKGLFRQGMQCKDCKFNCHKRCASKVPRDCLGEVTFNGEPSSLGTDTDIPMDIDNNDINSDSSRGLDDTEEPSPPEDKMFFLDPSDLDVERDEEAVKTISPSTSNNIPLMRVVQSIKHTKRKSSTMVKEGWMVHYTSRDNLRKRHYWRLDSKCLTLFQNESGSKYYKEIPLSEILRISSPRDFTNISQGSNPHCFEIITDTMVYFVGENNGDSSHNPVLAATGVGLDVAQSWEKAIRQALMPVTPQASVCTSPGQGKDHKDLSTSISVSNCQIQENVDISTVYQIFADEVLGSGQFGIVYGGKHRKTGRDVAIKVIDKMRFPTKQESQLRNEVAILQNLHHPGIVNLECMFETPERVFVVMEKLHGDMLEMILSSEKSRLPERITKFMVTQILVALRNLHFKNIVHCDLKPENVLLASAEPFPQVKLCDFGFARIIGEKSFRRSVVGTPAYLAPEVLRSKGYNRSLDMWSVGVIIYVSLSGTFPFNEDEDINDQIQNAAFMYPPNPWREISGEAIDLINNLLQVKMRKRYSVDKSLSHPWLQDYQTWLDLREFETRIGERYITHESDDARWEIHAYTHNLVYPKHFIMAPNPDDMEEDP

[12] = kinase KDR, 1 µmol/L single concentration

SMILES | inhibition at 1 µM [1] [%] | inhibition at 1 µM [2] [%] | inhibition at 1 µM [3] [%] | inhibition at 1 µM [4] [%] | inhibition at 1 µM [5, 12] [%] | inhibition at 1 µM [6] [%] | inhibition at 1 µM [7] [%] | inhibition at 1 µM [8] [%] | inhibition at 1 µM [9] [%] | inhibition at 1 µM [10] [%] | inhibition at 1 µM [11] [%] | inhibition at 1 µM [5] [%]
CCn1c(=O)c(-c2cc(NC(=O)Nc3ccccc3)c(F)cc2Br)cc2cnc(NC)cc21 [ripretinib] | 3.57 | -0.174 | 94 | -0.613 | 111 | 10 | -1.48 | -0.571 | 18 | 0.401 | 15 | 
Cn1cnc2c(F)c(Nc3ccc(Br)cc3Cl)c(C(=O)NOCCO)cc21 [selumetinib] | 2.73 | -0.349 | 38 | -2 | 2.42 | 26 | 1.7 | -16 | 8 | 5.4 | 0.359 | 
C=CC(=O)N1CCC([C@@H]2CCNc3c(C(N)=O)c(-c4ccc(Oc5ccccc5)cc4)nn32)CC1 [zanubrutinib] | 16 | -1 | 16 | -4 | 11 | 92 | -9 | -6 | 2.36 | -6 | 13 | 

Second part, the molecule after the results:

inhibition at 1 µM [1] [%] | inhibition at 1 µM [2] [%] | inhibition at 1 µM [3] [%] | inhibition at 1 µM [4] [%] | inhibition at 1 µM [5, 12] [%] | inhibition at 1 µM [6] [%] | inhibition at 1 µM [7] [%] | inhibition at 1 µM [8] [%] | inhibition at 1 µM [9] [%] | inhibition at 1 µM [10] [%] | inhibition at 1 µM [11] [%] | inhibition at 1 µM [5] [%] | SMILES
11 | -1.47 | 99 | 4.29 | 95 | 48 | 19 | -13 | 17 | 37 | 3 |  | CO[C@]1(C(=O)N[C@@H](C)c2ccc(-n3cc(F)cn3)nc2)CC[C@H](c2nc(C)cc(Nc3cc(C)[nH]n3)n2)CC1 [pralsetinib]
29 | 2.38 | 102 | 0.638 |  | 0.116 | 6 | 22 | 14 | 43 | 12 | 99 | COc1ccc(CN2C3CC2CN(c2ccc(-c4cc(OCC(C)(C)O)cn5ncc(C#N)c45)cn2)C3)cn1 [selpercatinib]
5.71 | 3 | 35 | -2.25 | 4.29 | 95 | 6 | -7 | 11 | 0.229 | 39 |  | Cc1cc(Nc2ncnc3ccc(NC4=NC(C)(C)CO4)cc23)ccc1Oc1ccn2ncnc2c1 [tucatinib]
